SMILES strings stand for the structures. Residues, ends and D or L forms follow the SMILES beside them. *: point of attachment. Cbz = O=C(OCc1ccccc1)*

`CCCC(Oc1ccc2c(-c3ccc(Cl)cc3)noc2c1)C(=O)O` (configuration not stated): the melting point (in general, the temperature, or range, at which the solid turns liquid) was found to be 170 °C.

In turn, `CC(C)CC(NC(=O)c1ccc2c(N)cccc2n1)C(=O)NCC#N` (configuration not stated) registered a melting point of 190 to 194 °C.

The compound `COc1ccc2cc3c(N)nn(CN(C)C)c3nc2c1` had a melting point of 156 to 158 °C.

As to `CCOC(=O)NC(C(=O)OC)C(c1ccccc1)c1ccccc1` (configuration not stated), the melting point lay within 107 to 109 °C.

With `CCc1nnc2c(Cl)nc3cc(F)ccc3n12`, the melting point lay in the range of 203 to 205 °C.

The compound `CC(C)(C)C(C)(C)Nc1nc(NC(C)(C)C(C)(C)C)nc(N2CCNCC2)n1` showed a melting point of 183 to 185 °C.

`COc1cccc(Cc2nnc(NCCSCc3nccs3)[nH]c2=O)c1`: the melting point lay in the range of 128 to 129 °C.

In the case of `O=c1n(-c2ccccc2)nc2c3c(nc(Cl)n12)CCCC3`, the melting point was in the range of 205 to 207 °C.

`NC(=O)c1ccc(F)c2c1OCC(N(CCCc1c[nH]c3ccc(F)cc13)C1CCC1)C2` (configuration not stated) showed a melting point of 132 °C.

Compound `N#Cc1cc(C(=O)N=C(N)N)cc(-n2cccc2)c1` yielded a melting point of 198 to 200 °C.

Regarding `COC(=O)CCC(=O)c1cc2cc(OC)c(OC)cc2o1`, the melting point lay in the range of 140 to 142 °C.

Compound `COCCc1nc2c(N)nc3cc(OCc4ccccc4)ccc3c2n1CCCCNC(N)=O` registered a melting point of 170 to 171 °C.

`COC(=O)c1cc(C(=O)c2cccc(F)c2)ccc1OC` registered a melting point of 140 °C.

Compound `CC(=O)OC(C(=O)N(C)c1ccc(N(C)C(=O)C(OC(C)=O)c2ccccc2)cc1)c1ccccc1` (configuration not stated) showed a melting point of 180 to 183 °C.

The compound `CCOC(=O)c1cn(-c2cnsn2)c2c(F)c(F)c(F)cc2c1=O` registered a melting point of 167 to 169 °C.

Compound `CCN(CC)C(=O)COC(=O)c1cccc(NC(=O)C(CSC(C)=O)Cc2ccccc2)c1` (configuration not stated) yielded a melting point of 143 to 144 °C.

In turn, `O=c1ccccn1[C@@H]1c2cc(C(F)(F)C(F)(F)F)ccc2OC(CF)(CF)[C@H]1O` (relative stereo) yielded a melting point of 162 to 164 °C.

`O=C1NC(NCC2CC2)=N/C1=C\c1c[nH]c2ncc(F)cc12`: the melting point was found to be 312 °C.

As to `CC(=O)Nc1cccc(-n2nc(C(C)C)c(=O)n(Cc3ccc(Cl)cc3)c2=O)c1`, the melting point was determined as 178 °C.

With `CSc1ccc2c(c1)C(O)c1ccccc1C=C2` (configuration not stated), the melting point was in the range of 117 to 118 °C.

`COC(=O)c1c(F)cc(OCCNC(=O)C2Cc3ccccc3N2S(=O)(=O)c2ccc(-c3cc(C(F)(F)F)ccc3Cl)cc2)cc1F` (configuration not stated): the melting point was 78 °C.

The compound `N#Cc1c(CNS(=O)(=O)c2c(F)cccc2F)nn(-c2ccc(Cl)cc2Cl)c1-c1ccc(O)cc1` gave a melting point of 196 °C.

`Cc1ccc(-c2nc(COc3ccc(CCCn4ccnc4)cc3)cs2)s1`: the melting point lay within 78 to 79 °C.

`CN(C)C=Nc1ccc(-c2cc3c(Nc4cccc(Cl)c4)ncnc3[nH]2)cc1` displayed a melting point of over 300 °C.

With `C[C@H](NC(=O)[C@H](C)NC(=O)OCc1ccccc1)C(=O)O` (Cbz-Ala-Ala-OH), the melting point fell in the range of 203 to 205 °C.

As to `Cc1cc(C)c2c(C)coc2c1Cc1ccc(C(C)C)cc1`, the melting point lay in the range of 106 to 107 °C.

`O=C(O)c1cccn1-c1ccc(F)cc1` yielded a melting point of 195 to 196 °C.

`N=c1sc2cc(OC(F)(F)F)ccc2n1CCSc1ccncc1` yielded a melting point of 143 °C.

On to `CSC(=S)NCc1ccc([N+](=O)[O-])cc1`, for which the melting point was in the range of 106 to 107 °C.

`C[C@H](O)[C@H]1C(=O)N2C(C(=O)OCc3ccc([N+](=O)[O-])cc3)=C(SCCNC(=O)COc3ccccc3)C[C@H]12` displayed a melting point of 115 to 118 °C.

Compound `CCN(CC)C(=O)C=Cc1cc(OC)c(OC)c(OC)c1` returned a melting point of 132 °C.

With `CC(C)N(C(=O)n1oc(=O)n(Cc2ccccc2)c1=O)c1ccc(F)cc1`, the melting point lay within 95 to 96 °C.

Compound `CCCCc1nc(Cl)c(C(=O)O)n1Cc1ccc2oc(-c3ccccc3C#N)c(OC)c2c1` gave a melting point of 158 to 160 °C.

In turn, `CCCCN1C(=O)NC(C(C)O)C1=O` (configuration not stated) had a melting point of 145 °C.

For `CCOC(=O)c1ccc2cc[nH]c2c1`, the melting point lay within 72 to 75 °C.

In turn, `O=S1(=O)N=C(O)c2ccc(-c3ccccn3)cc21` registered a melting point of 305 to 311 °C.

For the compound `COc1cccc(CNc2nccc(-c3cc(N4CCN(CCCN(C)C5CCCCC5)CC4)c4cc(OC)ccc4c3)n2)c1`, the melting point lay in the range of 155 to 161 °C.

In the case of `COc1ccc(S(N)(=O)=O)cc1C(C)=O`, the melting point was 203 to 206 °C.

`Oc1ccc2c(c1)ncn2-c1ccc2cccc(Cl)c2n1` had a melting point of over 250 °C.

`Cc1ccc2c(c1)OCc1nc(C(=O)O)cn1-2` returned a melting point of 278 to 279 °C.

`O=C(O)CN1C(=O)C(=Cc2ccc(OCc3ccccc3)c(OCc3ccc(F)c(F)c3)c2)SC1=S` gave a melting point of 231 to 236 °C.

In turn, `CN(CC1CCc2c(cccc2OCC(=O)O)C1)c1cnc(-c2ccccc2)c(-c2ccccc2)n1` (configuration not stated) came in with a melting point of 212 to 213 °C.

Regarding `CCOc1ccc2c(c1)n(C1CCCCC1)c(=O)n2Cc1ccc(NC(=O)N(C)CCO)cc1OC`, the melting point turned out to be 157 °C.

On to `O=C(NCCc1c[nH]c2ccc([N+](=O)[O-])cc12)C(F)(F)F`, for which the melting point lay within 200 to 201 °C.

`COc1ccc(NC(=O)c2ccc([N+](=O)[O-])cc2)cc1`: the melting point was found to be 200 °C.

The compound `CC(C)NCCCCOc1ccc(O)cc1` registered a melting point of 91 to 93 °C.

Compound `O=C(CC(c1ccccc1)c1ccccc1)N1CCN(CCc2cc3ccccc3o2)CC1` showed a melting point of 123 to 124 °C.

The compound `Cc1ccc2c(c1)c1c(n2C(=O)c2ccccc2)CCC(C(=O)O)C1` (configuration not stated) yielded a melting point of 200 to 202 °C.

The compound `Cn1cncc1C(O)(c1ccc(Cl)cc1)c1cc2nnn3c(=O)cc(-c4cccc(Cl)c4)c(c1)c23` (configuration not stated) showed a melting point of 226 °C.

`CC(C)OC(=O)C1=C2SCC(=CC(=O)N3CCCCC3)N2CC1` returned a melting point of 128 to 130 °C.

In turn, `CCN1C(=O)C(=C2C=C(N3CCCC3)CC(C)(C)C2)C(=O)N(CC)C1=S` yielded a melting point of 226 to 227 °C.

`CCCOC(=O)C(=C1SC=CS1)S(=O)(=O)C(C)C`: the melting point was in the range of 78 to 79 °C.

`CC(=O)CCCCCCC(=O)c1ccc(OCc2ccccc2)c(OCc2ccccc2)c1` returned a melting point of 64 to 66 °C.

`O=C(O)c1ccc(CN(C2CCOCC2)S(=O)(=O)c2ccc(Cl)cc2)cc1` came in with a melting point of 218 to 219 °C.

Take `Cn1nc(-c2c(F)cccc2Cl)nc1C(O)c1ccc(Cl)cc1` (configuration not stated): the melting point lay within 141 to 143 °C.

As to `COC(=O)c1cc2cc(SCc3sc(-c4ccc(C(F)(F)F)cc4)nc3C)ccc2o1`, the melting point was 132 to 133 °C.

For `Cc1csc2nccn12`, the melting point lay in the range of 165 to 168 °C.

`CN(CCSc1ccc(NS(C)(=O)=O)cc1)CCc1ccc(NS(C)(=O)=O)cc1` registered a melting point of 160 to 163 °C.

Consider `CNS(=O)(=O)c1cc(S(=O)(=O)NCc2ccccc2)c(Cl)cc1N`, for which the melting point was 151 to 152 °C.

Compound `C#Cc1ccc([Si](OC)(OC)OC)cc1` had a melting point of 38 to 39 °C.

In turn, `Cn1c(CO)nnc1NCCCOc1cccc(CN2CCCCC2)c1` had a melting point of 151 to 152 °C.

The compound `CS(=O)c1ccc(S(=O)(=O)N2CCCC(c3ccccc3)=N2)cc1` (configuration not stated) came in with a melting point of 137 to 139 °C.

In turn, `CN(C)C=NC(=O)c1nn(-c2ccccc2)c(=O)cc1Oc1ccccc1` displayed a melting point of 175 to 176 °C.

Take `CC1(O)CCN(C(=O)c2cc(-c3cnc4[nH]cc(C(=O)C5(C)CCCCC5)c4n3)cs2)CC1`: the melting point fell in the range of 257 to 259 °C.

Consider `COc1ccc(/C=C/c2nc3c([nH]2)c(=O)n(C)c(=O)n3C)c(Cl)c1OC`, for which the melting point is 242 °C.

The compound `C=CCOC(=O)OCc1ccc(C#N)cc1C(=O)O` yielded a melting point of 81 to 83 °C.

Regarding `CCCCC1(O)CCN(CC23CC(c4ccccc42)c2ccccc23)CC1`, the melting point was in the range of 194 to 196 °C.

In the case of `CCc1nn(C)c2[nH]c(=O)c3ccccc3c12`, the melting point is 291 to 294 °C.

As to `OC[C@@H](OCc1ccccc1)[C@@H](O)[C@H](O)[C@@H](CO)OCc1ccccc1`, the melting point lay in the range of 116 to 117 °C.

In turn, `N#Cc1ncn2c1[C@@H]1CCCN1C(=O)c1cc(F)ccc1-2` showed a melting point of 254 to 256 °C.

Compound `CCCCCCCCCCCCCCCCCC(=O)Oc1cccc(C(=O)OCC)c1` came in with a melting point of 57 °C.

For the compound `COC(=O)C1=C(C)NC(=S)N(C(=O)OC)C1c1cccc([N+](=O)[O-])c1` (configuration not stated), the melting point was in the range of 172 to 173 °C.

The compound `O=C(CN1CCCCC1)Nc1ccc(-c2cc(-c3c[nH]nc3-c3ccccn3)ccn2)cc1` registered a melting point of 180 °C.

For `COCc1cc(O)nc2nc(N)ccc12`, the melting point was over 290 °C.

In turn, `Cc1cccc(Nn2cnc(C)c2-c2ccccc2)c1` came in with a melting point of 159 °C.

`CC(C)(C)c1nc2cc(N3CCSCC3)c(N=C=S)cc2s1` showed a melting point of 155 to 159 °C.

Take `Cc1cc(C(C)NC(=O)N(C)O)c(C)s1` (configuration not stated): the melting point was 104 to 106 °C.

As to `C=CCOc1ccc(Oc2ccc(C(=O)OC)cc2)cc1`, the melting point was 75 °C.

Regarding `N#Cc1c(-c2ccc(F)cc2)cc2c3c1ccn3C(=O)CNC2`, the melting point lay within 248 to 250 °C.

As for `CON=C(C1=NOCCO1)c1ccccc1COc1ccn(-c2ccc(Cl)cc2)n1`, the melting point was 56 to 59 °C.

`Cc1cc(Cl)n2nc(S(=O)(=O)Nc3c(Cl)cccc3Cl)nc2n1` showed a melting point of 217 to 220 °C.

Compound `Cc1cc(C2=NOC(c3cc(Cl)cc(Cl)c3)(C(F)(F)F)C2)ccc1S(=O)(=O)NCc1ccccn1` (configuration not stated) returned a melting point of 57 to 58 °C.

In turn, `Cc1ccc(S(=O)(=O)NC(=O)OCCc2ccc(-n3c(CCC(=O)c4cccnc4)nc4cc(C(F)(F)F)c(Cl)cc43)cc2)cc1` came in with a melting point of 89 to 95 °C.

Regarding `COc1cc(N)c(Cl)cc1C(=O)NCC1CCN(CCCCCC(=O)c2cccs2)CC1`, the melting point lay in the range of 115 to 118 °C.

The compound `CC1(C)OCC(C(CS(=O)(=O)c2ccc(-c3ccc(C(F)(F)F)cc3)cc2)N(O)C=O)O1` (configuration not stated) displayed a melting point of 204 to 205 °C.

`CCCCc1nn(-c2cc(N)ccc2Cl)c(=O)n1Cc1ccc(-c2cc(CCC)ccc2S(=O)(=O)NC(C)(C)C)cc1F` registered a melting point of 85 to 87 °C.

`c1ccc(Nc2csc(-c3cn[nH]c3)n2)nc1` gave a melting point of 209 to 210 °C.

Values taken from a melting point compilation (Tetko et al.; mined from patent text by program, amines drawn as free bases though some values may be those of a salt).
